According to US20250255867A1 (Kadmon Corporation, LLC, priority 2022, published 2025):

Experiments:
[1] = Example 2: safety (AE, SAE, relative dose intensity); format: in vivo
Method: (§1) All responses were assessed by the study site investigators.

subjects with cGVHD [2] = experiment: Example 2: failure-free survival, overall survival, NRM, relapse; format: in vivo, human; conditions: for FFS at 6 mo (95% CI) / FFS at 12 mo (95% CI): mITT population
Method: as §1

subjects with cGVHD [3] = experiment: Example 2: 7-day LSS summary score; format: in vivo, human; conditions: for Clinically significant improvement from baseline (LSS), Overall: decrease ≥7 points in LSS score, mITT population
Method: as §1

CC(C)NC(=O)COc1cccc(-c2nc(Nc3ccc4[nH]ncc4c3)c3ccccc3n2)c1 [Belumosudil, 2-{3-[4-(1H-indazol-5-ylamino)-2-quinazolinyl]phenoxy}-N-(propan-2-yl) acetamide]
ALT increased ([1]; 200 mg daily (n = 66)): 4 (6) n (%)
AST increased ([1]; 200 mg daily (n = 66)): 5 (8) n (%)
Any AE ([1]; 200 mg daily (n = 66)): 65 (99) n (%)
Bilirubin conjugated increased ([1]; 200 mg daily (n = 66)): 1 (2) n (%)
Blood alkaline phosphatase increased ([1]; 200 mg daily (n = 66)): 4 (6) n (%)
Cough, all grades ([1]; 200 mg daily (n = 66)): 20 (30) n (%)
Deaths ([1]; 200 mg daily (n = 66)): 8 (12) n (%)
Diarrhea, all grades ([1]; 200 mg daily (n = 66)): 23 (35) n (%)
Drug-related AEs ([1]; 200 mg daily (n = 66)): 49 (74) n (%)
Drug-related SAEs ([1]; 200 mg daily (n = 66)): 5 (8) n (%)
Dyspnea, all grades ([1]; 200 mg daily (n = 66)): 21 (32) n (%)
Fatigue, all grades ([1]; 200 mg daily (n = 66)): 30 (46) n (%)
GGT increased ([1]; 200 mg daily (n = 66)): 6 (9) n (%)
Grade ≥3 AEs ([1]; 200 mg daily (n = 66)): 37 (56) n (%)
Headache, all grades ([1]; 200 mg daily (n = 66)): 13 (20) n (%)
Hyperglycemia, Grade ≥3 ([1]; 200 mg daily (n = 66)): 3 (5) n (%)
Hypertension, Grade ≥3 ([1]; 200 mg daily (n = 66)): 4 (6) n (%)
Hypoalbuminemia ([1]; 200 mg daily (n = 66)): 2 (3) n (%)
LFT increased ([1]; 200 mg daily (n = 66)): 1 (2) n (%)
Liver-related AEs ([1]; 200 mg daily (n = 66)): 12 (18) n (%)
Muscle spasms, all grades ([1]; 200 mg daily (n = 66)): 13 (20) n (%)
Nausea, all grades ([1]; 200 mg daily (n = 66)): 23 (35) n (%)
Peripheral edema, all grades ([1]; 200 mg daily (n = 66)): 17 (26) n (%)
Pneumonia, Grade ≥3 ([1]; 200 mg daily (n = 66)): 6 (9) n (%)
SAEs ([1]; 200 mg daily (n = 66)): 27 (41) n (%)
Transaminases increased ([1]; 200 mg daily (n = 66)): 1 (2) n (%)
Upper respiratory tract infection, all grades ([1]; 200 mg daily (n = 66)): 17 (26) n (%)
Vomiting, all grades ([1]; 200 mg daily (n = 66)): 18 (27) n (%)
ALT increased ([1]; 200 mg twice daily (n = 66)): 7 (11) n (%)
AST increased ([1]; 200 mg twice daily (n = 66)): 8 (12) n (%)
Any AE ([1]; 200 mg twice daily (n = 66)): 66 (100) n (%)
Bilirubin conjugated increased ([1]; 200 mg twice daily (n = 66)): 0 n (%)
Blood alkaline phosphatase increased ([1]; 200 mg twice daily (n = 66)): 6 (9) n (%)
Cough, all grades ([1]; 200 mg twice daily (n = 66)): 17 (26) n (%)
Deaths ([1]; 200 mg twice daily (n = 66)): 6 (9) n (%)
Diarrhea, all grades ([1]; 200 mg twice daily (n = 66)): 21 (32) n (%)
Drug-related AEs ([1]; 200 mg twice daily (n = 66)): 40 (61) n (%)
Drug-related SAEs ([1]; 200 mg twice daily (n = 66)): 2 (3) n (%)
Dyspnea, all grades ([1]; 200 mg twice daily (n = 66)): 12 (18) n (%)
Fatigue, all grades ([1]; 200 mg twice daily (n = 66)): 20 (30) n (%)
GGT increased ([1]; 200 mg twice daily (n = 66)): 10 (15) n (%)
Grade ≥3 AEs ([1]; 200 mg twice daily (n = 66)): 34 (52) n (%)
Headache, all grades ([1]; 200 mg twice daily (n = 66)): 18 (27) n (%)
Hyperglycemia, Grade ≥3 ([1]; 200 mg twice daily (n = 66)): 3 (5) n (%)
Hypertension, Grade ≥3 ([1]; 200 mg twice daily (n = 66)): 4 (6) n (%)
Hypoalbuminemia ([1]; 200 mg twice daily (n = 66)): 2 (3) n (%)
LFT increased ([1]; 200 mg twice daily (n = 66)): 0 n (%)
Liver-related AEs ([1]; 200 mg twice daily (n = 66)): 19 (29) n (%)
Muscle spasms, all grades ([1]; 200 mg twice daily (n = 66)): 13 (20) n (%)
Nausea, all grades ([1]; 200 mg twice daily (n = 66)): 18 (27) n (%)
Peripheral edema, all grades ([1]; 200 mg twice daily (n = 66)): 13 (20) n (%)
Pneumonia, Grade ≥3 ([1]; 200 mg twice daily (n = 66)): 4 (6) n (%)
SAEs ([1]; 200 mg twice daily (n = 66)): 23 (35) n (%)
Transaminases increased ([1]; 200 mg twice daily (n = 66)): 1 (2) n (%)
Upper respiratory tract infection, all grades ([1]; 200 mg twice daily (n = 66)): 18 (27) n (%)
Vomiting, all grades ([1]; 200 mg twice daily (n = 66)): 10 (15) n (%)
ALT increased ([1]; Total (N = 132)): 11 (8) n (%)
AST increased ([1]; Total (N = 132)): 13 (10) n (%)
Any AE ([1]; Total (N = 132)): 131 (99) n (%)
Bilirubin conjugated increased ([1]; Total (N = 132)): 1 (1) n (%)
Blood alkaline phosphatase increased ([1]; Total (N = 132)): 10 (8) n (%)
Cough, all grades ([1]; Total (N = 132)): 37 (28) n (%)
Diarrhea, all grades ([1]; Total (N = 132)): 44 (33) n (%)
Drug-related AEs ([1]; Total (N = 132)): 89 (67) n (%)
Drug-related SAEs ([1]; Total (N = 132)): 7 (5) n (%)
Dyspnea, all grades ([1]; Total (N = 132)): 33 (25) n (%)
Fatigue, all grades ([1]; Total (N = 132)): 50 (38) n (%)
GGT increased ([1]; Total (N = 132)): 16 (12) n (%)
Grade ≥3 AEs ([1]; Total (N = 132)): 71 (54) n (%)
Headache, all grades ([1]; Total (N = 132)): 31 (24) n (%)
Hyperglycemia, Grade ≥3 ([1]; Total (N = 132)): 6 (5) n (%)
Hypertension, Grade ≥3 ([1]; Total (N = 132)): 8 (6) n (%)
Hypoalbuminemia ([1]; Total (N = 132)): 4 (3) n (%)
LFT increased ([1]; Total (N = 132)): 1 (1) n (%)
Liver-related AEs ([1]; Total (N = 132)): 31 (24) n (%)
Muscle spasms, all grades ([1]; Total (N = 132)): 26 (20) n (%)
Nausea, all grades ([1]; Total (N = 132)): 41 (31) n (%)
Peripheral edema, all grades ([1]; Total (N = 132)): 30 (23) n (%)
Pneumonia, Grade ≥3 ([1]; Total (N = 132)): 10 (8) n (%)
SAEs ([1]; Total (N = 132)): 50 (38) n (%)
Transaminases increased ([1]; Total (N = 132)): 2 (2) n (%)
Upper respiratory tract infection, all grades ([1]; Total (N = 132)): 35 (27) n (%)
Vomiting, all grades ([1]; Total (N = 132)): 28 (21) n (%)
Deaths ([1]; Total (N = 132), six died during LTFU (>28 days after last dose)): 14 (11) n (%)
Discontinued because of overall AEs ([1]; in vivo): 21%
Discontinued because of possible drug-related AEs ([1]; in vivo): 12%
Grade 3 or 4 hyperglycemia ([1]; in vivo): 5%
Grade 3 or 4 hypertension ([1]; in vivo): 6%
Grade 3 or 4 pneumonia ([1]; in vivo): 8%
Grade ≥3 anemia ([1]; in vivo): 3%
Grade ≥3 cytopenias ([1]; in vivo): < 4%
Grade ≥3 neutropenia ([1]; in vivo): 2%
Grade ≥3 thrombocytopenia ([1]; in vivo): 2%
Increased GGT (liver-related AE) ([1]; in vivo): 12%
Median RDI ([1]; in vivo): 99.7%
SAE pneumonia, subjects ([1]; in vivo): 7%
Subjects who died during the study ([1]; in vivo): Fourteen
Subjects who received an RDI >95% ([1]; in vivo): Eighty-one
Subjects with >1 SAE ([1]; in vivo): Thirty eight
Subjects with increased liver function tests (LFTs) ([1]; in vivo): Twenty-four
Cases of Epstein-Barr viremia that required treatment ([1]; unrelated to belumosudil): 1 case
Cases of cytomegalovirus (CMV) reactivation ([1]; unrelated to belumosudil): 1 case
Cases of cytomegalovirus (CMV) reactivation ([1]; unrelated to belumosudil, listed as belumosudil): one
FFS at 6 mo (95% CI) (subjects with cGVHD [2]; 200 mg daily (n = 66)): 73 (61-83) %
FFS at 12 mo (95% CI) (subjects with cGVHD [2]; 200 mg daily (n = 66)): 57 (44-68) %
FFS at 6 mo (95% CI) (subjects with cGVHD [2]; 200 mg twice daily (n = 66)): 76 (63-84) %
FFS at 12 mo (95% CI) (subjects with cGVHD [2]; 200 mg twice daily (n = 66)): 56 (43-67) %
Overall FFS rate at 12 months (subjects with cGVHD [2]; 95% CI, 47-64): 56%
Overall FFS rate at 6 months (subjects with cGVHD [2]; 95% CI, 66-81): 75%
2-year OS rate (subjects with cGVHD [2]; 95% CI, 82-93): 89%
Failure event: initiation of a new systemic cGVHD therapy (subjects with cGVHD [2]; in vivo): 38%
Relapse rate (subjects with cGVHD [2]; in vivo): 3%
Clinically meaningful improvement in 7-day LSS summary score (subjects with cGVHD [3]; 200 mg daily, nonresponders): 29%
Clinically meaningful improvement in 7-day LSS summary score (subjects with cGVHD [3]; 200 mg daily, responders): 69%
Clinically meaningful improvement in 7-day LSS summary score (subjects with cGVHD [3]; 200 mg twice daily, nonresponders): 33%
Clinically meaningful improvement in 7-day LSS summary score (subjects with cGVHD [3]; 200 mg twice daily, responders): 71%
Clinically significant improvement from baseline (LSS), Overall (subjects with cGVHD [3]; 200 mg daily (n = 66)): 39 (59) n (%)
Clinically significant improvement from baseline (LSS), Overall (subjects with cGVHD [3]; 200 mg twice daily (n = 66)): 41 (62) n (%)
